Measurements published in PubChem BioAssay (NCI).
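1) Cells in 96-well plates. 2) Compound, 48 h, 5 concentrations. 3) Linear interpolation between surrounding doses. 4) Unreached endpoint = highest concentration. GI50: concentration for 50% inhibition of growth. Definition used: TGI = concentration required for complete inhibition of growth.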

Legend:
Test in all cases: NCI-60 cell line screen, 48 h
OVCAR-3 ovarian = tested on: OVCAR-3 ovarian
UO-31 renal = tested on: UO-31 renal
SK-MEL-28 melanoma = tested on: SK-MEL-28 melanoma
OVCAR-5 ovarian = tested on: OVCAR-5 ovarian
HCT-116 colon = tested on: HCT-116 colon
DU-145 prostate = tested on: DU-145 prostate
NCI-H522 lung = tested on: NCI-H522 lung
MDA-MB-231 breast = tested on: MDA-MB-231 breast
A549 NSCLC = tested on: A549 NSCLC
MOLT-4 leukemia = tested on: MOLT-4 leukemia
MDA-MB-468 breast = tested on: MDA-MB-468 breast
MDA-MB-435 = tested on: MDA-MB-435
HCC-2998 colon = tested on: HCC-2998 colon
SF-295 CNS = tested on: SF-295 CNS
PC-3 prostate = tested on: PC-3 prostate
SNB-19 CNS = tested on: SNB-19 CNS
EKVX NSCLC = tested on: EKVX NSCLC
MCF7 breast = tested on: MCF7 breast
NCI-H460 lung = tested on: NCI-H460 lung
U251 CNS = tested on: U251 CNS
SNB-75 CNS = tested on: SNB-75 CNS
NCI/ADR-RES ovarian = tested on: NCI/ADR-RES ovarian
SF-268 CNS = tested on: SF-268 CNS
LOX IMVI melanoma = tested on: LOX IMVI melanoma
CCRF-CEM leukemia = tested on: CCRF-CEM leukemia
TK-10 renal = tested on: TK-10 renal
SK-MEL-5 melanoma = tested on: SK-MEL-5 melanoma
COLO 205 colon = tested on: COLO 205 colon
CAKI-1 renal = tested on: CAKI-1 renal

COc1ccc(-c2nc3ccc(-c4nnc(SCC(=O)Nc5ccc(/C(C)=N\O)cc5)o4)cc3[nH]2)cc1
GI50 (OVCAR-3 ovarian): 12.7 µM
TGI (OVCAR-3 ovarian): 38.1 µM
GI50 (UO-31 renal): 33.5 µM
TGI (UO-31 renal): > 100 µM
GI50 (SK-MEL-28 melanoma): 2.05 µM
TGI (SK-MEL-28 melanoma): 4.03 µM
GI50 (OVCAR-5 ovarian): 19.9 µM
TGI (OVCAR-5 ovarian): 41 µM
GI50 (HCT-116 colon): 3.31 µM
TGI (HCT-116 colon): > 100 µM
GI50 (DU-145 prostate): 14.8 µM
TGI (DU-145 prostate): 31.8 µM
GI50 (NCI-H522 lung): 6.37 µM
TGI (NCI-H522 lung): 23 µM
GI50 (MDA-MB-231 breast): 3.83 µM
TGI (MDA-MB-231 breast): 13.4 µM
GI50 (A549 NSCLC): 14.1 µM
TGI (A549 NSCLC): 35.6 µM
GI50 (MOLT-4 leukemia): 9.01 µM
TGI (MOLT-4 leukemia): > 100 µM
GI50 (MDA-MB-468 breast): 6.35 µM
TGI (MDA-MB-468 breast): 19.3 µM
GI50 (MDA-MB-435): 4 µM
TGI (MDA-MB-435): 18.1 µM
GI50 (HCC-2998 colon): 50.8 µM
TGI (HCC-2998 colon): > 100 µM
GI50 (SF-295 CNS): 14.2 µM
TGI (SF-295 CNS): 32.8 µM
GI50 (PC-3 prostate): 3.05 µM
TGI (PC-3 prostate): 10.8 µM
GI50 (SNB-19 CNS): 13.1 µM
TGI (SNB-19 CNS): 28.3 µM
GI50 (EKVX NSCLC): 17.1 µM
TGI (EKVX NSCLC): 48.8 µM
GI50 (MCF7 breast): 8.61 µM
TGI (MCF7 breast): 30.9 µM
GI50 (NCI-H460 lung): 15 µM
TGI (NCI-H460 lung): 53 µM
GI50 (U251 CNS): 4.3 µM
TGI (U251 CNS): 20.4 µM
GI50 (SNB-75 CNS): 2.8 µM
TGI (SNB-75 CNS): 14.9 µM
GI50 (NCI/ADR-RES ovarian): > 100 µM
TGI (NCI/ADR-RES ovarian): > 100 µM
GI50 (SF-268 CNS): 4.38 µM
TGI (SF-268 CNS): 23.1 µM
GI50 (LOX IMVI melanoma): 5.69 µM
TGI (LOX IMVI melanoma): 19.4 µM
GI50 (CCRF-CEM leukemia): 7.22 µM
TGI (CCRF-CEM leukemia): > 100 µM
GI50 (TK-10 renal): 19.8 µM
TGI (TK-10 renal): 37.5 µM
GI50 (SK-MEL-5 melanoma): 1.68 µM
TGI (SK-MEL-5 melanoma): 3.66 µM
GI50 (COLO 205 colon): 26.2 µM
TGI (COLO 205 colon): > 100 µM
GI50 (CAKI-1 renal): 5.93 µM
